From patent US20080177101A1, “Synthesis of isotopically labeled alpha-keto acids and esters” (Spectra Gases, Inc., priority 2006, published 2008)

How the values were obtained:
[1] = background description; cited from earlier work
[2] = Concentration studies: stability of pyruvic acid solutions in water at higher concentrations; type: physicochemical; design: unit not given here; settings: light, about 22° C. to about 26° C.
Experimental: Each of these commercial solutions were subjected to light for 6-weeks at temperatures ranging from about 22° C. to about 26° C. At each of the concentrations listed below, it was discovered that the pyruvic acid solutions were stable.

[3] = Titration of aqueous sample 4 with sodium hydroxide, composition by HPLC; type: physicochemical; settings: sample 4 titrated with sodium hydroxide to pH of about 6.2
Description: The molarity of sample 4 was confirmed to be 0.025M by titrating the aqueous sample with sodium hydroxide. […] It was also discovered that at pHs greater than 5.8, such as at a pH of about 6.2, some of the pyruvic acid was present in the form of a dimerized sodium salt. […] As such, it was discovered that to minimize dimmer formation, it may be necessary to control the pH of [1-^13C] pyruvate solutions, and in particular, any aqueous solution should be maintained at a pH of about 6.5 or less, more preferably 6.0 or less, and even more preferably 5.8 or less.

[4] = Shelf storage stability of [1-^13C] pyruvic acid in water, 1H and 13C NMR spectra compared; type: physicochemical; settings: 0.025M in water
Experimental: Samples of isotopically labeled [1-^13C] pyruvic acid, having Formula VI and synthesized as discussed immediately below, were subjected to various conditions as depicted in Table 1, in order to establish the compound's shelf storage stability.
The resulting [1-^13C] pyruvic acid was tested as follows in Table 1:
^1H and ^13C NMR spectra of the distilled [1-^13C] pyruvic acid in water (0.025M) were acquired at the onset of the study and prior to exposing the samples to the various conditions specified in Table 1. ^1H and ^13C NMR spectra were again acquired for each of the samples after being exposed to the aforementioned conditions on a weekly basis for 12-weeks. The spectra acquired after exposure were compared visually and appeared to remain unchanged as compared with the spectra acquired prior to exposure, i.e. the spectra were as expected for [1-^13C] pyruvic acid in water. As such, it was concluded that each of the samples were shelf stable. Similarly, ^1H and ^13C NMR spectra acquired after 17-weeks of exposure remained unchanged as compared with the spectra acquired prior to exposure.

[5] = Sample 3, Room temperature (about 22° C. to about 26° C.), Dark
[6] = Sample 4, Room temperature (about 22° C. to about 26° C.), Light

| Compound | Solubility in water [1] | Stability After 6-weeks ([2]; Concentration 2.3 in water) | Stability After 6-weeks ([2]; Concentration 2.8 in water) | Stability After 6-weeks ([2]; Concentration 3.8 in water) | Stability After 6-weeks ([2]; Concentration 5.7 in water) | Stability After 6-weeks ([2]; Concentration 11.3 in water) | Share of the pyruvic acid accounted for by dimerized salt [3] | Shelf stability, 12 weeks ([4]; Sample 1, −10° C., Dark) | Shelf stability, 17 weeks ([4]; Sample 1, −10° C., Dark) | Shelf stability, 12 weeks ([4]; Sample 2, 4° C., Dark) | Shelf stability, 17 weeks ([4]; Sample 2, 4° C., Dark) | Shelf stability, 12 weeks [4, 5] | Shelf stability, 17 weeks [4, 5] | Shelf stability, 12 weeks [4, 6] | Shelf stability, 17 weeks [4, 6] |
| --- | --- | --- | --- | --- | --- | --- | --- | --- | --- | --- | --- | --- | --- | --- | --- |
| CC(=O)C(=O)O [Pyruvic acid, 2-oxopropanoic acid] | soluble in water | Stable | Stable | Stable | Stable | Stable |  |  |  |  |  |  |  |  |  |
| CC(=O)[13C](=O)O [[1-^13C] pyruvic acid] |  |  |  |  |  |  | 4-6% | Stable | Stable | Stable | Stable | Stable | Stable | Stable | Stable |
